Experiments:
c-Kit kinase = c-Kit kinase (Homo sapiens, UniProt P10721); assay: c-Kit AlphaScreen kinase assay; assay type: biochemical;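 also: c-Kit kinase phosphorylating biotinylated poly(Glu,Tyr), ATP near its KM, 1 h reaction at ambient temperature, AlphaScreen chemiluminescence with streptavidin donor and anti-phosphotyrosine acceptor beads, 10-point inhibitor titration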
Method: Kinase activity and compound inhibition are investigated using one or more of the three assay formats described below. The ATP concentrations for each assay are selected to be close to the Michaelis-Menten constant (KM) for each individual kinase. Dose-response experiments are performed at 10 different inhibitor concentrations in a 384-well plate format.
AlphaScreen™ (Perkin Elmer) technology is a proximity assay employing microparticles. Singlet oxygen derived from a donor bead following laser excitation results in chemiluminescence when in proximity (100 Å) to an acceptor bead due to biomolecular interactions.
c-Kit biochemical activity was assessed using AlphaScreen™ (Perkin Elmer) technology, described above. Test compounds, ATP, biotinylated poly(Glu, Tyr) and c-Kit kinase were combined in a volume of 20 μL in a 384-well white, medium binding microtiter plate (Greiner). Reaction mixtures were incubated for 1 hr at ambient temperature. […] After 16 hr incubation at ambient temperature plates were read using an AlphaQuest reader (Perkin Elmer).

[1] = biological target: T1, KDR (baculovirus expressed human KDR kinase domain D807-V1356) (Homo sapiens, UniProt P35968); assay: biochemical;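 also: Luciferase-coupled chemiluminescent kinase assay, activity read as percent ATP left after 4 h reaction at ambient temperature, ATP near KM, 10-point dose-response in 384-well plates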
T1 construct: human KDR kinase domain D807-V1356; host or cells: baculovirus expression
T1 sequence (P35968 807-1356): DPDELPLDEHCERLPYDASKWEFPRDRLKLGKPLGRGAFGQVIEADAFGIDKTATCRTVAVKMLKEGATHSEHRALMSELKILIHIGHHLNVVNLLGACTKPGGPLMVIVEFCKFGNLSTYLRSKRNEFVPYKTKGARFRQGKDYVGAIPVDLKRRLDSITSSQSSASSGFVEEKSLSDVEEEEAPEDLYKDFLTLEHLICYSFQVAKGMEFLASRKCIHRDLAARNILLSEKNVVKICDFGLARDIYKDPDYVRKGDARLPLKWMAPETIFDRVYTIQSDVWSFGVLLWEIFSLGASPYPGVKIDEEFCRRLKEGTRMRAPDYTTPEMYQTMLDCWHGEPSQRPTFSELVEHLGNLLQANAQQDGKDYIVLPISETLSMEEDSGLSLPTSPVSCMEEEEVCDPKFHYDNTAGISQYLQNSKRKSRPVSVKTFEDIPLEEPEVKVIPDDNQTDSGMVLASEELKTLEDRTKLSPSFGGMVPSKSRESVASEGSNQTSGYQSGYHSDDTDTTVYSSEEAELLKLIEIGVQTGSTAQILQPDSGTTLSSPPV

[2] = biological target: T2, Flt-4 (baculovirus expressed human Flt-4 kinase domain D725-R1298) (Homo sapiens, UniProt P35916); assay: flt-4 Alphascreen Tyrosine Kinase assay; assay type: biochemical; conditions: read-out: flt4 IC50;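 also: AlphaScreen chemiluminescence read-out of biotinylated poly(Glu,Tyr) 4:1 phosphorylation via streptavidin donor and PY100 anti-phosphotyrosine acceptor beads, ATP near KM, 1 hr kinase reaction, 10-point dose-response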
T2 construct: human Flt-4 kinase domain D725-R1298; host or cells: baculovirus expression
T2 sequence (P35916 725-1298 isoform P35916-1): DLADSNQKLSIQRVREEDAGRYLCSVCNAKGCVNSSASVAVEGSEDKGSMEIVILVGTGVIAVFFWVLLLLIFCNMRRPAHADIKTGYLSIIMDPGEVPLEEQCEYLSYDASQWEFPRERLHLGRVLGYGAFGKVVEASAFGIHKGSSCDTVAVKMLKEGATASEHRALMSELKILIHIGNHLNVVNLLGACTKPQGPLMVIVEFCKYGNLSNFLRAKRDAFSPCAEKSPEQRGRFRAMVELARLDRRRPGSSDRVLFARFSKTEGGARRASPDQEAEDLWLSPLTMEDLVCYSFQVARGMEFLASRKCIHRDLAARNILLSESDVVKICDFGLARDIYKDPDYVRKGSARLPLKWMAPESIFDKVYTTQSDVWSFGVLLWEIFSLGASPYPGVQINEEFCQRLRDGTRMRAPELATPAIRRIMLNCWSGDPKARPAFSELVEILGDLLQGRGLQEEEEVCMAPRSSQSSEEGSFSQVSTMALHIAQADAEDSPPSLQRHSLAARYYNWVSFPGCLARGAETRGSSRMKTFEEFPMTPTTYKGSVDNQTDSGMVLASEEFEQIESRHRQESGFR
Method: Kinase activity and compound inhibition are investigated using one or more of the three assay formats described below. The ATP concentrations for each assay are selected to be close to the Michaelis-Menten constant (KM) for each individual kinase. Dose-response experiments are performed at 10 different inhibitor concentrations in a 384-well plate format. […] Typically H is close to unity. c-Met Assay
Biochemical activity for flt-4 was assessed using an Alphascreen Tyrosine Kinase protocol. AlphaScreen™ (Perkin Elmer) technology is a proximity assay employing microparticles. Singlet oxygen derived from a donor bead following laser excitation results in chemiluminescence when in proximity (100 Å) to an acceptor bead due to biomolecular interactions. For the Flt-4 assay, donor beads coated with streptavidin and acceptor beads coated with PY100 anti-phosphotyrosine antibody were used (Perkin Elmer). Biotinylated poly(Glu,Tyr) 4:1 (Perkin Elmer) was used as the substrate. Substrate phosphorylation was measured by addition of donor/acceptor beads by chemiluminescence following donor-acceptor bead complex formation. […] Reaction mixtures were incubated for 1 hr at ambient temperature. […] After 2-16 hr incubation at ambient temperature plates were read using an AlphaQuest reader (Perkin Elmer).

[3] = biological target: T3, Flt-3 (baculovirus expressed human Flt-3 kinase domain R571-S993) (Homo sapiens, UniProt P36888); assay: biochemical; conditions: read-out: flt3 IC50;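 also: Luciferase-coupled chemiluminescent kinase assay, activity read as percent ATP left after a 3 h reaction at room temperature, ATP near KM, 10-point dose-response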
T3 construct: human Flt-3 kinase domain R571-S993; host or cells: baculovirus expression
T3 sequence (P36888 571-993): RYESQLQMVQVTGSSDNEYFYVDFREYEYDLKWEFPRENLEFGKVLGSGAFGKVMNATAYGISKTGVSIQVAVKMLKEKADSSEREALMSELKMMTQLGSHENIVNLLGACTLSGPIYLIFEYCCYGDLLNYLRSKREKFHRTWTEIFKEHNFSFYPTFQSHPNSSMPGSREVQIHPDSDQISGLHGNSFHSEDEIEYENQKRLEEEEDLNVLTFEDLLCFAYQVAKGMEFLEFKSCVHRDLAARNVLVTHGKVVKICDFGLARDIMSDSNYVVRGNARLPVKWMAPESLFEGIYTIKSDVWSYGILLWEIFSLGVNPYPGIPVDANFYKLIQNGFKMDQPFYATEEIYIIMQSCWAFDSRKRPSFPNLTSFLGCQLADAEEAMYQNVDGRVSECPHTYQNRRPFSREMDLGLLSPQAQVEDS

[4] = biological target: T4, c-Met (baculovirus expressed human c-Met kinase domain P948-S1343) (Homo sapiens, UniProt P08581); assay: c-Met Luciferase-Coupled Chemiluminescent Kinase assay (LCCA); assay type: biochemical;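 also: kinase activity read as percent ATP left after reaction, by luciferase-luciferin chemiluminescence, with 1 µM ATP and 1 µM poly-EY substrate, 2 h at ambient temperature, 10-point dose-response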
T4 construct: human c-Met kinase domain P948-S1343; host or cells: baculovirus expression
T4 sequence (P08581 1011-1343 limits assumed): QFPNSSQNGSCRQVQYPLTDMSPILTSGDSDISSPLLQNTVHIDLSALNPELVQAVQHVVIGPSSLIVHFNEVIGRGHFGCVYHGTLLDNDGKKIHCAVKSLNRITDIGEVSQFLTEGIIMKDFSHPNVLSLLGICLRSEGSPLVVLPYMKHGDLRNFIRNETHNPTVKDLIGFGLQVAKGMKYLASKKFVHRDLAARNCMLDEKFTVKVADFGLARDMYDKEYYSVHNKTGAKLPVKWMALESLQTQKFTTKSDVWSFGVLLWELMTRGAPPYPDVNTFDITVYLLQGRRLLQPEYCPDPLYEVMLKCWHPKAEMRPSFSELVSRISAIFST

Chain of c-Kit kinase (P10721 26-976): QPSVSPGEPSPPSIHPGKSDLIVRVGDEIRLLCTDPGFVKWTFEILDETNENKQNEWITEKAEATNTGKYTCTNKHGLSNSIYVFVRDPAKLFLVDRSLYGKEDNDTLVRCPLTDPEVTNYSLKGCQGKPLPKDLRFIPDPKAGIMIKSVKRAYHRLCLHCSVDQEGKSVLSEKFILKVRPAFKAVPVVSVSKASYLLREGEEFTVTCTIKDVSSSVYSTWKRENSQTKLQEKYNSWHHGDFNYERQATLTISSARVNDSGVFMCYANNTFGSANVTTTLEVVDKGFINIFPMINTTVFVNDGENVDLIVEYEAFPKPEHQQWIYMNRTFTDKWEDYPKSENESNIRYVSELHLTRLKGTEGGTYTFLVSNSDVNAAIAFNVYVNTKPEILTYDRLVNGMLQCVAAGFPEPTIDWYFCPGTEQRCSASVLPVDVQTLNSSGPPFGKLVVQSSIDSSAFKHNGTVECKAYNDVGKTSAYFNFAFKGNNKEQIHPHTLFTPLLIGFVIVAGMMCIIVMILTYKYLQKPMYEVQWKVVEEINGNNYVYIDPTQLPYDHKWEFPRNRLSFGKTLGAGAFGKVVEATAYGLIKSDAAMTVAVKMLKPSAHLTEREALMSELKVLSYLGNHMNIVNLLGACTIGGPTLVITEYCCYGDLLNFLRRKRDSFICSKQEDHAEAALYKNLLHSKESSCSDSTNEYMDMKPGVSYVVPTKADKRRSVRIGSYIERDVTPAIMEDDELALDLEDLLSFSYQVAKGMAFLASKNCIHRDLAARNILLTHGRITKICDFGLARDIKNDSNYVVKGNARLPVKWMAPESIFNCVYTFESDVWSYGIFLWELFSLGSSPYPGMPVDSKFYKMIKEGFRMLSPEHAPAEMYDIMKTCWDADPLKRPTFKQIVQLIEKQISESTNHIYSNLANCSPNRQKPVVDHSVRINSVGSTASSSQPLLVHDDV

| Structure (SMILES) | IC50 (c-Kit kinase) | IC50 [1] | IC50 [2] | IC50 [3] | IC50 [4] |
| --- | --- | --- | --- | --- | --- |
| O=C(Nc1ccc(F)cc1)C1(C(=O)Nc2ccc(Oc3ccnc4cc(Cl)ccc34)c(F)c2)CC1 [Example 303, N-{4-[(7-chloroquinolin-4-yl)oxy]-3-fluorophenyl}-N′-(4-fluorophenyl)cyclopropane-1,1-dicarboxamide] | 500 to 5000 nM | < 50 nM | 50 to 500 nM | 500 to 5000 nM | < 50 nM |
| CCN(CC)CCOc1cc2nccc(Oc3ccc(NC(=O)C4(C(=O)Nc5ccc(F)cc5)CC4)cc3F)c2cc1OC [Example 304, N-(4-{[7-{[2-(diethylamino)ethyl]oxy}-6-(methyloxy)quinolin-4-yl]oxy}-3-fluorophenyl)-N′-(4-fluorophenyl)cyclopropane-1,1-dicarboxamide] | < 50 nM | < 50 nM | < 50 nM | < 50 nM | < 50 nM |
| COc1cc2nccc(Oc3ccc(NC(=O)C4(C(=O)Nc5ccc(F)cc5)CC4)c(C)n3)c2cc1OC [Example 306, N-(6-{[6,7-bis(methyloxy)quinolin-4-yl]oxy}-2-methylpyridin-3-yl)-N′-(4-fluorophenyl)cyclopropane-1,1-dicarboxamide] | 50 to 500 nM | 50 to 500 nM | 50 to 500 nM | 500 to 5000 nM | < 50 nM |
| CCN(CC)CCOc1cc2nccc(Oc3ccc(NC(=O)C4(C(=O)Nc5ccc(F)cc5)CCC4)cc3F)c2cc1OC [Example 307, N-(4-{[7-{[2-(diethylamino)ethyl]oxy}-6-(methyloxy)quinolin-4-yl]oxy}-3-fluorophenyl)-N′-(4-fluorophenyl)cyclobutane-1,1-dicarboxamide] | < 50 nM | < 50 nM | < 50 nM | 50 to 500 nM | < 50 nM |
| O=C(Nc1ccc(F)cc1)C1(C(=O)Nc2ccc(Oc3ccnc4cc(Cl)ccc34)cc2)CC1 [Example 308, N-{4-[(7-chloroquinolin-4-yl)oxy]phenyl}-N′-(4-fluorophenyl)cyclopropane-1,1-dicarboxamide] | 50 to 500 nM | < 50 nM | 50 to 500 nM | 500 to 5000 nM | < 50 nM |
| COc1cc2c(Oc3ncc(NC(=O)C4(C(=O)Nc5ccc(F)cc5)CC4)cc3Cl)ccnc2cc1OCc1ccccc1 [Example 309, N-[5-chloro-6-({6-(methyloxy)-7-[(phenylmethyl)oxy]quinolin-4-yl}oxy)pyridin-3-yl]-N′-(4-fluorophenyl)cyclopropane-1,1-dicarboxamide] | 500 to 5000 nM | 500 to 5000 nM | 500 to 5000 nM | 50 to 500 nM | < 50 nM |
| COc1cc2ncnc(Oc3ccc(NC(=O)C4(C(=O)Nc5ccc(F)cc5)CC4)cc3)c2cc1OC [Example 310, N-(4-{[6,7-bis(methyloxy)quinazolin-4-yl]oxy}phenyl)-N′-(4-fluorophenyl)cyclopropane-1,1-dicarboxamide] | < 50 nM | < 50 nM | < 50 nM | < 50 nM | < 50 nM |
| COc1cc2ncnc(Oc3ccc(NC(=O)C4(C(=O)Nc5ccc(F)cc5)CC4)cc3F)c2cc1OC [Example 311, N-(4-{[6,7-bis(methyloxy)quinazolin-4-yl]oxy}-3-fluorophenyl)-N′-(4-fluorophenyl)cyclopropane-1,1-dicarboxamide] | 50 to 500 nM | < 50 nM | < 50 nM | < 50 nM | < 50 nM |
| COc1cc2c(Oc3ccc(NC(=O)C4(C(=O)Nc5ccc(F)cc5)CC4)cc3F)ccnc2cc1OCCCN1CCCCC1 [Example 313, N-[3-fluoro-4-({6-(methyloxy)-7-[(3-piperidin-1-ylpropyl)oxy]quinolin-4-yl}oxy)phenyl]-N′-(4-fluorophenyl)cyclopropane-1,1-dicarboxamide] | < 50 nM | < 50 nM | < 50 nM | < 50 nM | < 50 nM |
| COc1cc2c(Oc3ccc(NC(=O)C4(C(=O)Nc5ccc(F)cc5)CCC4)cc3F)ccnc2cc1OCCCN1CCCCC1 [Example 314, N-[3-fluoro-4-({6-(methyloxy)-7-[(3-piperidin-1-ylpropyl)oxy]quinolin-4-yl}oxy)phenyl]-N′-(4-fluorophenyl)cyclobutane-1,1-dicarboxamide] | < 50 nM | < 50 nM | < 50 nM | 50 to 500 nM | < 50 nM |
| COc1cc2c(Oc3ccc(NC(=O)C4(C(=O)Nc5ccc(F)cc5)CC4)cc3F)ncnc2cc1OCCCN1CCOCC1 [Example 315, N-[3-fluoro-4-({6-(methyloxy)-7-[(3-morpholin-4-ylpropyl)oxy]quinazolin-4-yl}oxy)phenyl]-N′-(4-fluorophenyl)cyclopropane-1,1-dicarboxamide] | < 50 nM | < 50 nM | < 50 nM | < 50 nM | < 50 nM |
| COc1cc2c(Oc3ccc(NC(=O)C4(C(=O)Nc5ccc(F)cc5)CC4)cc3F)ncnc2cc1OCC1CCN(C)CC1 [Example 316, N-{3-fluoro-4-[(6-(methyloxy)-7-{[(1-methylpiperidin-4-yl)methyl]oxy}quinazolin-4-yl)oxy]phenyl}-N′-(4-fluorophenyl)cyclopropane-1,1-dicarboxamide] | < 50 nM | < 50 nM | < 50 nM | < 50 nM | < 50 nM |
| COc1cc2nccc(Oc3ccc(NC(=O)C4(C(=O)Nc5ccc(F)cc5)CC4)c(C)c3)c2cc1OC [Example 317, N-(4-{[6,7-bis(methyloxy)quinolin-4-yl]oxy}-2-methylphenyl)-N′-(4-fluorophenyl)cyclopropane-1,1-dicarboxamide] | < 50 nM | < 50 nM | < 50 nM | 500 to 5000 nM | < 50 nM |
| COc1cc2c(Oc3ccc(NC(=O)C4(C(=O)Nc5ccc(F)cc5)CC4)c(C)n3)ccnc2cc1OCCCN1CCOCC1 [Example 318, N-(4-fluorophenyl)-N′-[2-methyl-6-({6-(methyloxy)-7-[(3-morpholin-4-ylpropyl)oxy]quinolin-4-yl}oxy)pyridin-3-yl]cyclopropane-1,1-dicarboxamide] | 50 to 500 nM | < 50 nM | 50 to 500 nM | 50 to 500 nM | < 50 nM |
| COc1cc2nccc(Oc3nc(C)c(NC(=O)C4(C(=O)Nc5ccc(F)cc5)CC4)cc3Cl)c2cc1OC [Example 320, N-(6-{[6,7-bis(methyloxy)quinolin-4-yl]oxy}-5-chloro-2-methylpyridin-3-yl)-N′-(4-fluorophenyl)cyclopropane-1,1-dicarboxamide] | 500 to 5000 nM | 500 to 5000 nM | 500 to 5000 nM | 50 to 500 nM | < 50 nM |
| COc1cc2ncnc(Oc3ccc(NC(=O)C4(C(=O)Nc5ccc(F)cc5)CC4)cc3F)c2cc1OCCCN1CCOCC1 [Example 321, N-[3-fluoro-4-({7-(methyloxy)-6-[(3-morpholin-4-ylpropyl)oxy]quinazolin-4-yl}oxy)phenyl]-N′-(4-fluorophenyl)cyclopropane-1,1-dicarboxamide] | 50 to 500 nM | < 50 nM | < 50 nM | < 50 nM | < 50 nM |
| COc1cc2nccc(Oc3ccc(NC(=O)C4(C(=O)Nc5ccc(F)cc5)CC4)cc3F)c2cc1OCCCN1CCOCC1 [Example 322, N-[3-fluoro-4-({7-(methyloxy)-6-[(3-morpholin-4-ylpropyl)oxy]quinolin-4-yl}oxy)phenyl]-N′-(4-fluorophenyl)cyclopropane-1,1-dicarboxamide] | < 50 nM | < 50 nM | < 50 nM | < 50 nM | < 50 nM |
| COc1cc2nccc(Oc3c(F)cc(NC(=O)C4(C(=O)Nc5ccc(F)cc5)CC4)cc3F)c2cc1OC [Example 323, N-(4-{[6,7-bis(methyloxy)quinolin-4-yl]oxy}-3,5-difluorophenyl)-N′-(4-fluorophenyl)cyclopropane-1,1-dicarboxamide] | 50 to 500 nM | < 50 nM | < 50 nM | < 50 nM | < 50 nM |
| COc1cc2nccc(Oc3cc(F)c(NC(=O)C4(C(=O)Nc5ccc(F)cc5)CC4)cc3F)c2cc1OC [Example 324, N-(4-{[6,7-bis(methyloxy)quinolin-4-yl]oxy}-2,5-difluorophenyl)-N′-(4-fluorophenyl)cyclopropane-1,1-dicarboxamide] | < 50 nM | < 50 nM | < 50 nM | < 50 nM | < 50 nM |
| COc1cc2ncnc(Oc3ccc(NC(=O)C4(C(=O)Nc5ccc(F)cc5)CC4)cc3F)c2cc1OCC1CCN(C)CC1 [Example 325, N-{3-fluoro-4-[(7-(methyloxy)-6-{[(1-methylpiperidin-4-yl)methyl]oxy}quinazolin-4-yl)oxy]phenyl}-N′-(4-fluorophenyl)cyclopropane-1,1-dicarboxamide] | 50 to 500 nM | < 50 nM | < 50 nM | < 50 nM | < 50 nM |

Source: patent publication US8476298B2 (Exelixis, Inc., priority 2003, dated 2013)
